Measured values: patent US10787452B2 (Vertex Pharmaceuticals Incorporated, priority 2012, dated 2020)

Test system: HCT116 colorectal cancer cells
Assay: Cisplatin sensitization assay (96 h cell viability MTS);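 also: compound concentration needed to lower the Cisplatin-alone IC50 by a set fold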
Type: cell-based
Conditions: 96 h MTS, compound plus Cisplatin
In short: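 Full-matrix combination: compound × cisplatin, 2-fold dilutions from 10 μM top final, co-added; 96 h, 37° C, 5% CO2; MTS read-out after 1 h.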

Row | Compound | Cisplatin Sensitization Assay
1 | Nc1nn2cc(F)cnc2c1C(=O)Nc1cncc(F)c1N1CCN(C2CCOCC2)CC1 [I-N-121, 2-amino-6-fluoro-N-(5-fluoro-4-(4-(tetrahydro-2H-pyran-4-yl)piperazin-1-yl)pyridin-3-yl)pyrazolo[1,5-a]pyrimidine-3-carboxamide] | +++ (Compounds with a Cisplatin sensitization value of <0.02 μM are marked with “+++.”)
2 | Nc1nn2cc(F)cnc2c1C(=O)Nc1cnccc1-n1cccn1 [I-N-26, N-(4-(1H-pyrazol-1-yl)pyridin-3-yl)-2-amino-6-fluoropyrazolo[1,5-a]pyrimidine-3-carboxamide] | + (Compounds with a Cisplatin sensitization value >0.2 μM but <5 μM are marked with “+.”)
3 | Cc1cncc(NC(=O)c2c(N)nn3cc(Cl)cnc23)c1N1CCN(C)CC1 [I-N-57, 2-amino-6-chloro-N-(5-methyl-4-(4-methylpiperazin-1-yl)pyridin-3-yl)pyrazolo[1,5-a]pyrimidine-3-carboxamide] | +++ (Compounds with a Cisplatin sensitization value of <0.02 μM are marked with “+++.”)
4 | Cc1nccnc1-c1ccncc1NC(=O)c1c(N)nn2cc(F)cnc12 [I-C-62, 2-amino-6-fluoro-N-(4-(3-methylpyrazin-2-yl)pyridin-3-yl)pyrazolo[1,5-a]pyrimidine-3-carboxamide] | ++ (Compounds with a Cisplatin sensitization value >0.02 μM but <0.2 μM are marked with “++.”)
5 | Nc1nn2cc(F)cnc2c1C(=O)Nc1cncc2c1CCNC2 [I-C-7, 2-amino-6-fluoro-N-(5,6,7,8-tetrahydro-2,7-naphthyridin-4-yl)pyrazolo[1,5-a]pyrimidine-3-carboxamide] | ++ (Compounds with a Cisplatin sensitization value >0.02 μM but <0.2 μM are marked with “++.”)
6 | Nc1nn2cc(F)cnc2c1C(=O)Nc1cnccc1-c1cccnc1Cl [I-C-37, 2-amino-N-(2-chloro-[3,4′-bipyridin]-3′-yl)-6-fluoropyrazolo[1,5-a]pyrimidine-3-carboxamide] | +++ (Compounds with a Cisplatin sensitization value of <0.02 μM are marked with “+++.”)
7 | Cc1nccn1-c1ccncc1NC(=O)c1c(N)nn2cc(F)cnc12 [I-N-28, 2-amino-6-fluoro-N-(4-(2-methyl-1H-imidazol-1-yl)pyridin-3-yl)pyrazolo[1,5-a]pyrimidine-3-carboxamide] | +++ (Compounds with a Cisplatin sensitization value of <0.02 μM are marked with “+++.”)
8 | Nc1nn2cc(F)cnc2c1C(=O)Nc1cnccc1N1CCN(C2COC2)CC1 [I-N-1, 2-amino-6-fluoro-N-(4-(4-(oxetan-3-yl)piperazin-1-yl)pyridin-3-yl)pyrazolo[1,5-a]pyrimidine-3-carboxamide] | ++ (Compounds with a Cisplatin sensitization value >0.02 μM but <0.2 μM are marked with “++.”)
9 | CC1(C)CN(c2ccncc2NC(=O)c2c(N)nn3cc(F)cnc23)CCS1(=O)=O [I-N-252, 2-amino-N-(4-(2,2-dimethyl-1,1-dioxidothiomorpholino)pyridin-3-yl)-6-fluoropyrazolo[1,5-a]pyrimidine-3-carboxamide] | +++ (Compounds with a Cisplatin sensitization value of <0.02 μM are marked with “+++.”)
10 | CN(C)CC1CCN(c2ccncc2NC(=O)c2c(N)nn3cc(Cl)cnc23)CC1 [I-N-45, 2-amino-6-chloro-N-(4-(4-((dimethylamino)methyl)piperidin-1-yl)pyridin-3-yl)pyrazolo[1,5-a]pyrimidine-3-carboxamide] | ++ (Compounds with a Cisplatin sensitization value >0.02 μM but <0.2 μM are marked with “++.”)
11 | Nc1nn2cc(F)cnc2c1C(=O)Nc1cncc(F)c1N1CCC(C(=O)N2CCNC3(CC3)C2)CC1 [I-G-28, N-(4-(4-(4,7-diazaspiro[2.5]octane-7-carbonyl)piperidin-1-yl)-5-fluoropyridin-3-yl)-2-amino-6-fluoropyrazolo[1,5-a]pyrimidine-3-carboxamide] | +++ (Compounds with a Cisplatin sensitization value of <0.02 μM are marked with “+++.”)
12 | CN1CCN(c2cc(N)ncc2NC(=O)c2c(N)nn3cc(Cl)cnc23)CC1 [I-N-50, 2-amino-N-(6-amino-4-(4-methylpiperazin-1-yl)pyridin-3-yl)-6-chloropyrazolo[1,5-a]pyrimidine-3-carboxamide] | + (Compounds with a Cisplatin sensitization value >0.2 μM but <5 μM are marked with “+.”)
13 | CN1CC2CC1CN2C(=O)C1CCN(c2c(F)cncc2NC(=O)c2c(N)nn3cc(F)cnc23)CC1 (centres unmarked) [I-G-53, 2-amino-6-fluoro-N-(5-fluoro-4-(4-(5-methyl-2,5-diazabicyclo[2.2.1]heptane-2-carbonyl)piperidin-1-yl)pyridin-3-yl)pyrazolo[1,5-a]pyrimidine-3-carboxamide] | +++ (Compounds with a Cisplatin sensitization value of <0.02 μM are marked with “+++.”)
14 | CNC1CN(C(=O)C2CCN(c3c(F)cncc3NC(=O)c3c(N)nn4cc(F)cnc34)CC2)C1 [I-G-34, 2-amino-6-fluoro-N-(5-fluoro-4-(4-(3-(methylamino)azetidine-1-carbonyl)piperidin-1-yl)pyridin-3-yl)pyrazolo[1,5-a]pyrimidine-3-carboxamide] | +++ (Compounds with a Cisplatin sensitization value of <0.02 μM are marked with “+++.”)
15 | Nc1nn2cc(F)cnc2c1C(=O)Nc1cncc(F)c1N1CCN2C(=O)OC[C@@H]2C1 [I-N-248, (S)-2-amino-6-fluoro-N-(5-fluoro-4-(3-oxotetrahydro-1H-oxazolo[3,4-a]pyrazin-7(3H)-yl)pyridin-3-yl)pyrazolo[1,5-a]pyrimidine-3-carboxamide] | ++ (Compounds with a Cisplatin sensitization value >0.02 μM but <0.2 μM are marked with “++.”)
16 | CN1CCN(C(=O)C2CCN(c3c(F)cncc3NC(=O)c3c(N)nn4cc(F)cnc34)CC2)CC1 [I-G-4, 2-amino-6-fluoro-N-(5-fluoro-4-(4-(4-methylpiperazine-1-carbonyl)piperidin-1-yl)pyridin-3-yl)pyrazolo[1,5-a]pyrimidine-3-carboxamide] | +++ (Compounds with a Cisplatin sensitization value of <0.02 μM are marked with “+++.”)
17 | CN1CCN2CCN(c3ccncc3NC(=O)c3c(N)nn4cc(F)cnc34)CC2C1=O (centres unmarked) [I-N-233, 2-amino-6-fluoro-N-(4-(8-methyl-9-oxohexahydro-1H-pyrazino[1,2-a]pyrazin-2(6H)-yl)pyridin-3-yl)pyrazolo[1,5-a]pyrimidine-3-carboxamide] | ++ (Compounds with a Cisplatin sensitization value >0.02 μM but <0.2 μM are marked with “++.”)
18 | CCC(C#N)c1cnc2c(C(=O)Nc3cnccc3OC)c(N)nn2c1 (centres unmarked) [I-O-20, 2-amino-6-(1-cyanopropyl)-N-(4-methoxypyridin-3-yl)pyrazolo[1,5-a]pyrimidine-3-carboxamide] | ++ (Compounds with a Cisplatin sensitization value >0.02 μM but <0.2 μM are marked with “++.”)
19 | Nc1nn2cc(F)cnc2c1C(=O)Nc1cncc(F)c1N1CCC(C(=O)N2CC3(COC3)C2)CC1 [I-G-14, N-(4-(4-(2-oxa-6-azaspiro[3.3]heptane-6-carbonyl)piperidin-1-yl)-5-fluoropyridin-3-yl)-2-amino-6-fluoropyrazolo[1,5-a]pyrimidine-3-carboxamide] | +++ (Compounds with a Cisplatin sensitization value of <0.02 μM are marked with “+++.”)
20 | CN1CC[C@H](Oc2ccncc2NC(=O)c2c(N)nn3cc(F)cnc23)C1 [I-O-1, (S)-2-amino-6-fluoro-N-(4-((1-methylpyrrolidin-3-yl)oxy)pyridin-3-yl)pyrazolo[1,5-a]pyrimidine-3-carboxamide] | +++ (Compounds with a Cisplatin sensitization value of <0.02 μM are marked with “+++.”)
21 | CN(C)C1CCN(C2CCN(c3ccncc3NC(=O)c3c(N)nn4cc(Cl)cnc34)CC2)C1 (centres unmarked) [I-N-106, 2-amino-6-chloro-N-(4-(4-(3-(dimethylamino)pyrrolidin-1-yl)piperidin-1-yl)pyridin-3-yl)pyrazolo[1,5-a]pyrimidine-3-carboxamide] | +++ (Compounds with a Cisplatin sensitization value of <0.02 μM are marked with “+++.”)
22 | CN(C)CCOc1cc(C(F)(F)F)ncc1NC(=O)c1c(N)nn2cc(Cl)cnc12 [I-O-71, 2-amino-6-chloro-N-(4-(2-(dimethylamino)ethoxy)-6-(trifluoromethyl)pyridin-3-yl)pyrazolo[1,5-a]pyrimidine-3-carboxamide] | + (Compounds with a Cisplatin sensitization value >0.2 μM but <5 μM are marked with “+.”)
23 | COc1ccncc1NC(=O)c1c(N)nn2cc(CC#N)cnc12 [I-O-26, 2-amino-6-(cyanomethyl)-N-(4-methoxypyridin-3-yl)pyrazolo[1,5-a]pyrimidine-3-carboxamide] | ++ (Compounds with a Cisplatin sensitization value >0.02 μM but <0.2 μM are marked with “++.”)
24 | CN1CCOC(C(=O)N2CCN(c3c(F)cncc3NC(=O)c3c(N)nn4cc(F)cnc34)CC2)C1 (centres unmarked) [I-N-174, 2-amino-6-fluoro-N-(5-fluoro-4-(4-(4-methylmorpholine-2-carbonyl)piperazin-1-yl)pyridin-3-yl)pyrazolo[1,5-a]pyrimidine-3-carboxamide] | +++ (Compounds with a Cisplatin sensitization value of <0.02 μM are marked with “+++.”)
25 | COc1cncc(NC(=O)c2c(N)nn3cc(F)cnc23)c1C1CC1 [I-C-84, 2-amino-N-(4-cyclopropyl-5-methoxypyridin-3-yl)-6-fluoropyrazolo[1,5-a]pyrimidine-3-carboxamide] | ++ (Compounds with a Cisplatin sensitization value >0.02 μM but <0.2 μM are marked with “++.”)
26 | CN1CCC(Oc2ccncc2NC(=O)c2c(N)nn3cc(F)cnc23)CC1 [I-O-12, 2-amino-6-fluoro-N-(4-((1-methylpiperidin-4-yl)oxy)pyridin-3-yl)pyrazolo[1,5-a]pyrimidine-3-carboxamide] | +++ (Compounds with a Cisplatin sensitization value of <0.02 μM are marked with “+++.”)
